What was measured:
Leishmania donovani [1] = assay: Antileishmanial activity against promastigotes of Leishmania donovani MHOM/IN/60/Dd8 after 72 hrs by luciferase reporter gene assay; assay type: functional, organism-based; details: MHOM/IN/60/Dd8, 72 h
Leishmania donovani [2] = assay: Antileishmanial activity against amastigotes of Leishmania donovani MHOM/IN/60/Dd8 infected in mouse J-774A.1 cells after 72 hrs by luciferase reporter gene assay; assay type: functional, organism-based; details: MHOM/IN/60/Dd8, J774.A1, 72 h
[3] = Selectivity index, ratio of CC50 for mouse J774A1 cells to IC50 for amastigotes of Leishmania donovani MHOM/IN/60/Dd8 infected in mouse J-774A.1 cells; assay type: functional, J774.A1
[4] = Cytotoxicity against african green monkey Vero cells after 72 hrs by MTT assay; assay type: cell-based; details: chlorocebus sabaeus
[5] = Cytotoxicity against mouse J774A1 cells after 72 hrs by MTT assay; assay type: cell-based, J774.A1
Leishmania donovani [6] = assay: Antileishmanial activity against amastigotes of Leishmania donovani MHOM/IN/60/Dd8 infected in golden hamster assessed as amastigote count at 50 mg/kg/day, ip administered for 5 days measured on day 7 of post last dose by Giemsa staining; assay type: functional; details: MHOM/IN/60/Dd8, ip, route intraperitoneal

SMILES | IC50 (Leishmania donovani [1]) [µM] | IC50 (Leishmania donovani [2]) [µM] | Ratio CC50/IC50 [3] | CC50 at 72 h [4] [µM] | CC50 at 72 h [5] [µM] | inhibition in vivo at 50 mg/kg/day (Leishmania donovani [6]) [%]
COc1ccc(C(C(=O)NC2CCCCC2)N(C(=O)c2cccc(Cl)c2)c2ccc(C3(C)NC(=O)c4ccccc4N3)cc2)cc1 (stereo not drawn) | > 40 | 15.5 |  |  |  | 
COc1ccc(C(Nc2ccc(C3(C)NC(=O)c4ccccc4N3)cc2)c2nnnn2C2CCCCC2)cc1 (stereo not drawn) | > 40 | 16.8 |  |  |  | 
CC(C)(C)n1nnnc1C(NCc1ccccc1)c1ccc(C2NC(=O)c3ccccc3N2)cc1 (stereo not drawn) | 3.64 | > 40 |  |  |  | 
CC1(c2ccc(Nc3nc(N4CCOCC4)nc(N4CCOCC4)n3)cc2)NC(=O)c2ccccc2N1 (stereo not drawn) | > 40 | > 40 |  |  |  | 
COc1ccc(C(Nc2ccc(C3(C)NC(=O)c4ccccc4N3)cc2)c2nnnn2C(C)(C)C)c2ccccc12 (stereo not drawn) | 2.56 | 15.5 |  |  |  | 
CC1(c2ccc(NC(c3ccc(Br)cc3)c3nnnn3C(C)(C)C)cc2)NC(=O)c2ccccc2N1 (stereo not drawn) | 24.1 | 8.46 | 47.28 | > 400 | 400 | 
COc1cc(C(Nc2ccc(C3(C)NC(=O)c4ccccc4N3)cc2)c2nnnn2C(C)(C)C)cc(OC)c1OC (stereo not drawn) | > 40 | > 40 |  |  |  | 
CC(C)(C)NC(=O)C(c1ccc(Cl)cc1)N(C(=O)c1cccc(Cl)c1)c1ccc(C2(C)NC(=O)c3ccccc3N2)cc1 (stereo not drawn) | > 40 | 13.5 | >29.67 | > 400 | > 400 | 
Nc1nc(-c2ccc(F)cc2)cc(-c2ccc(C3NC(=O)c4ccccc4N3)cc2)n1 (stereo not drawn) | 9.83 | 24.7 |  |  |  | 
CC1(c2ccc(NC(c3cccc4ccccc34)c3nnnn3C(C)(C)C)cc2)NC(=O)c2ccccc2N1 (stereo not drawn) | 3.92 | > 20 |  |  |  | 
CC1(c2ccc(NC(c3ccc(F)cc3)c3nnnn3C(C)(C)C)cc2)NC(=O)c2ccccc2N1 (stereo not drawn) | 3.68 | > 20 |  |  |  | 
CCCCNC(c1ccc(C2NC(=O)c3ccccc3N2)cc1)c1nnnn1C(C)(C)C (stereo not drawn) | 5.59 | > 40 |  |  |  | 
CC(C)c1ccc(C(C(=O)NC(C)(C)C)N(C(=O)c2cccc(Cl)c2)c2ccc(C3(C)NC(=O)c4ccccc4N3)cc2)cc1 (stereo not drawn) | > 40 | 12 | >33.25 | > 400 | > 400 | 
CC1(c2ccc(NC(c3ccncc3)c3nnnn3C(C)(C)C)cc2)NC(=O)c2ccccc2N1 (stereo not drawn) | > 40 | > 40 |  |  |  | 
CC1(c2ccc(Nc3nc(Nc4ccccc4)nc(Nc4ccccc4)n3)cc2)NC(=O)c2ccccc2N1 (stereo not drawn) | 3.02 |  |  |  |  | 
CC1(c2ccc(NC(c3ccc(Cl)cc3)c3nnnn3C3CCCCC3)cc2)NC(=O)c2ccccc2N1 (stereo not drawn) | 39.4 | 11.3 | >35.3 | > 400 | > 400 | 
CC(C)(C)n1nnnc1C(c1ccc(C2NC(=O)c3ccccc3N2)cc1)N1CCc2ccccc2C1 (stereo not drawn) | 1.27 | > 40 |  |  |  | 
CC1(c2ccc(Nc3nc(NCc4ccco4)nc(NCc4ccco4)n3)cc2)NC(=O)c2ccccc2N1 (stereo not drawn) | 13.2 | > 20 |  |  |  | 
Nc1nc(-c2ccccc2)cc(-c2ccc(C3NC(=O)c4ccccc4N3)cc2)n1 (stereo not drawn) | 4.04 | 17 |  |  |  | 
CC1(c2ccc(Nc3nc(N4CCC(O)CC4)nc(N4CCC(O)CC4)n3)cc2)NC(=O)c2ccccc2N1 (stereo not drawn) | > 40 | > 40 |  |  |  | 

SMILES | IC50 (Leishmania donovani [1]) [µM] | IC50 (Leishmania donovani [2]) [µM] | Ratio CC50/IC50 [3] | CC50 at 72 h [4] [µM] | CC50 at 72 h [5] [µM] | inhibition in vivo at 50 mg/kg/day (Leishmania donovani [6]) [%]
CC1(c2ccc(Nc3nc(NCCCN4CCOCC4)nc(NCCCN4CCOCC4)n3)cc2)NC(=O)c2ccccc2N1 (stereo not drawn) | > 40 | > 40 |  |  |  | 
Nc1nc(-c2ccc(C3NC(=O)c4ccccc4N3)cc2)cc(-c2ccccc2Cl)n1 (stereo not drawn) | 9 | 15.3 |  |  |  | 
CCCNc1nc(NCCC)nc(Nc2ccc(C3(C)NC(=O)c4ccccc4N3)cc2)n1 (stereo not drawn) | 8.86 | 8.87 | >45.09 | > 400 | > 400 | 
CC1(c2ccc(Nc3nc(N4CCCc5ccccc54)nc(N4CCCc5ccccc54)n3)cc2)NC(=O)c2ccccc2N1 (stereo not drawn) | 33.2 | > 40 |  |  |  | 
COc1ccc(C(Nc2ccc(C3(C)NC(=O)c4ccccc4N3)cc2)c2nnnn2C(C)(C)C)cc1 (stereo not drawn) | 3.05 | 13.1 | >30.65 | > 400 | > 400 | 
CC(C)(C)NC(=O)C(c1ccc(Br)cc1)N(C(=O)c1cccc(Cl)c1)c1ccc(C2(C)NC(=O)c3ccccc3N2)cc1 (stereo not drawn) | > 40 | 15.6 |  |  |  | 
CC(C)c1ccc(C(Nc2ccc(C3(C)NC(=O)c4ccccc4N3)cc2)c2nnnn2C2CCCCC2)cc1 (stereo not drawn) | 7 | 9.07 | >44.1 | > 400 | > 400 | 
CC1(c2ccc(NC(c3ccc(Br)cc3)c3nnnn3C3CCCCC3)cc2)NC(=O)c2ccccc2N1 (stereo not drawn) | > 40 | 9.42 | >42.46 | > 400 | > 400 | 
COc1ccc(C(C(=O)NC(C)(C)C)N(C(=O)c2cccc(Cl)c2)c2ccc(C3(C)NC(=O)c4ccccc4N3)cc2)cc1 (stereo not drawn) | > 40 | 29.6 |  |  |  | 
CC(C)(C)Nc1nc(Nc2ccc(C3(C)NC(=O)c4ccccc4N3)cc2)nc(NC(C)(C)C)n1 (stereo not drawn) | 1.02 | 5.48 | 11.07 | 159 | 60.7 | 
COc1cc(-c2cc(-c3ccc(C4NC(=O)c5ccccc5N4)cc3)nc(N)n2)cc(OC)c1OC (stereo not drawn) | 3.44 | 3.83 | 26.97 | 85.9 | 103 | 
COc1ccc(CNc2nc(NCc3ccc(OC)cc3)nc(Nc3ccc(C4(C)NC(=O)c5ccccc5N4)cc3)n2)cc1 (stereo not drawn) | > 40 | > 40 |  |  |  | 
CCCCNc1nc(NCCCC)nc(Nc2ccc(C3(C)NC(=O)c4ccccc4N3)cc2)n1 (stereo not drawn) | 7.69 | 4.8 | 8.35 | 142 | 40.1 | 
Nc1nc(-c2ccc(Br)cc2)cc(-c2ccc(C3NC(=O)c4ccccc4N3)cc2)n1 (stereo not drawn) | 2.82 | 7.02 | 17.82 | > 400 | 125 | 
COc1cccc(-c2cc(-c3ccc(C4NC(=O)c5ccccc5N4)cc3)nc(N)n2)c1OC (stereo not drawn) | 4.23 | 4.43 | >90.29 | > 400 | > 400 | 
CC1(c2ccc(Nc3nc(N4CCCCCC4)nc(N4CCCCCC4)n3)cc2)NC(=O)c2ccccc2N1 (stereo not drawn) | 6.02 | 2.59 | 91.64 | > 400 | 237 | 37.4
COc1ccc(-c2cc(-c3ccc(C4NC(=O)c5ccccc5N4)cc3)nc(N)n2)cc1 (stereo not drawn) | 5.79 | 10.1 | 17.64 | 124 | 178 | 
CCCCCNC(c1ccc(C2NC(=O)c3ccccc3N2)cc1)c1nnnn1C(C)(C)C (stereo not drawn) | 1.91 | > 40 |  |  |  | 
CC1(c2ccc(NC(c3ccc(Cl)cc3)c3nnnn3C(C)(C)C)cc2)NC(=O)c2ccccc2N1 (stereo not drawn) | 1.21 | 7.06 | >56.65 | > 400 | > 400 | 
CC1(c2ccc(N(C(=O)c3cccc(Cl)c3)C(C(=O)NC3CCCCC3)c3ccc(Cl)cc3)cc2)NC(=O)c2ccccc2N1 (stereo not drawn) | 39.5 | 15.8 |  |  |  | 
